Where a SMILES comes first, the peptide text is derived from it. [ ]: non-standard residue; d: D form.
How the values were obtained:
purified porcine DPP-4 = purified porcine DPP-4 (Sus scrofa, UniProt P22411); assay: DPP-4 degradation / in vitro DPP-4 half-life; settings: 20 μg peptide, 5 mU purified DPP-4, up to 12 h, HPLC
Method: Peptide (20 μg) DPP-4 degradation profiles (5 μl purified DPP-4, 5 mU; Sigma-Aldrich, UK) were assessed as described previously.
For calculation of experimental molecular masses, peptide samples (1 µg) were mixed with α-cyano-4-hydroxycinnamic acid (1 µg) and applied to a Voyager-DE BioSpectrometry Workstation and mass-to-charge (m/z) ratio verses peak intensity recorded by MALDI-TOF mass spectrometry. DPP-4 half-life was assessed by incubating peptides (37°C in 50 mmol/L TEA-HCl; pH 7.8) with 5 mU purified porcine DPP-4 for 0, 1, 2, 4, 8 and 12 h. Degradation profiles were obtained using rp-HPLC analysis and HPLC peak area data used to calculate percentage intact peptide remaining at each time point.

lean control mice [1] = assay: Acute cumulative food intake in lean mice; assay type: in vivo, mouse; settings: 250 nmol/kg i.p., 18 h fasted lean mice, 120 min post injection, vs saline
Method: (§1) Animals Acute animal studies were conducted in male NIH Swiss mice (12-14 weeks old, Harlan Ltd, UK) maintained on a standard rodent maintenance diet (10% fat, 30% protein and 60% carbohydrate, Trouw Nutrition, UK). Prior to commencement of longer term studies, all animals, except lean controls that continued on rodent maintenance diet, were maintained on a high-fat diet (45% fat, 35% carbohydrate and 20% protein, Special Diet Services, UK) for 12 weeks. This diet […]
(§2) individually in an air-conditioned room at 22 ± 2 °C with a 12 h light:12 h dark cycle and had free access to food and water. Animal experiments were carried out in accordance with the UK Animals (Scientific Procedures) Act 1986.
(§3) Acute in vivo effects in lean mice For food intake studies, fasted (18 h) mice were given intraperitoneal (i.p) injections of peptides at a dose of 25, 100 or 250 nmol/kg bw. Mice were then allowed free access to normal chow for 180 mins and cumulative food intake measured. For glucose homeostasis and […]

BRIN-BD11 cells [2] = assay: Intracellular Ca2+ in BRIN-BD11 cells (FLIPR Calcium 5); assay type: cell-based, rat; settings: peptide 10^−6 mol/l, 5.6 mmol/l glucose, 5 min, AUC 0–300 s
Method: (§4) BRIN-BD11 cells were used to assess the insulin-releasing activity of test peptides, as described previously. This hybrid cell line (ECACC 10033003) was originally generated in-house by electrofusion of a primary culture of New England Deaconess Hospital (NEDH) rat pancreatic islets with RINm5F (a cell line derived from an NEDH rat insulinoma), and has been mycoplasma eradicated. For details of experimental conditions please see ESM Methods. Insulin was measured by radioimmunoassay. We assessed the impact of GIP and neurotensin receptors on (DAla^2)GIP/xenin-8-Gln-induced insulin secretion in BRIN-BD11 cells. Cells were incubated in 5.6 mmol/l glucose with (DAla^2)GIP/xenin-8-Gln (10^−6 mol/l) alone or in combination with the GIP receptor antagonist GIP(6-30)Cex-K^40[Pal] [32] (where Pal is palmitate) or the neurotensin receptor antagonist SR142948A (Sigma, Poole, UK), and insulin secretion determined as described above. In addition, to determine mechanisms, intracellular Ca^2+ was also measured in BRIN-BD11 cells following treatment with test peptides (10^−6 mol/l), using a Flexstation scanning fluorometer (FLIPR Calcium 5 assay kit; Molecular Devices, Sunnyvale, CA, USA), as described previously.

lean control mice [3] = assay: Acute glucose-lowering and insulin-releasing effects in lean mice; assay type: in vivo, mouse; settings: 25 nmol/kg i.p. with glucose 18 mmol/kg, non-fasted lean mice, vs glucose alone
Method: Specific information on acute feeding, glucose homeostasis and insulin-secretory studies is given in ESM Methods. To assess the impact of GIP and neurotensin receptor activation on (DAla^2)GIP/xenin-8-Gln-induced glucose-lowering and insulin-secretory actions in mice, (DAla^2)GIP/xenin-8-Gln was administered by i.p. injection (25 nmol/kg body weight) in combination with glucose (18 mmol/kg) in the absence and presence of GIP(6-30)Cex-K^40[Pal] and SR142948A (both at 25 nmol/kg), and glucose and insulin were measured as described above. In a final series of experiments, test peptides (25 nmol/kg) or saline vehicle (0.9% wt/vol. NaCl) were injected 4 h before a glucose load (18 mmol/kg) in non-fasted mice and blood glucose and plasma insulin measured as above. […]
as §1, §2, §3

lean control mice [4] = assay: Persistent glucose-lowering and insulin-releasing effects, peptide 4 h before glucose load; assay type: in vivo, mouse; settings: 25 nmol/kg injected 4 h before i.p. glucose load 18 mmol/kg, non-fasted lean mice, vs saline
Method: Specific information on acute feeding, glucose homeostasis and insulin-secretory studies is given in ESM Methods. To assess the impact of GIP and neurotensin receptor activation on (DAla^2)GIP/xenin-8-Gln-induced glucose-lowering and insulin-secretory actions in mice, (DAla^2)GIP/xenin-8-Gln was administered by i.p. injection (25 nmol/kg body weight) in combination with glucose (18 mmol/kg) in the absence and presence of GIP(6-30)Cex-K^40[Pal] and SR142948A (both at 25 nmol/kg), and glucose and insulin were measured as described above. In a final series of experiments, test peptides (25 nmol/kg) or saline vehicle (0.9% wt/vol. NaCl) were injected 4 h before a glucose load (18 mmol/kg) in non-fasted mice and blood glucose and plasma insulin measured as above.

BRIN-BD11 cells [5] = assay: In vitro insulin secretion from BRIN-BD11 cells; assay type: cell-based, rat; settings: peptide 10^−6 mol/l, antagonist 10^−6 mol/l, 5.6 mmol/l glucose, 20 min
Method: as §4
In vitro insulin release studies Cells were seeded at a density of 150,000 cells/well in 24-well plates (Nunc, Roskilde, Denmark) and allowed to attach overnight at 37 °C. Culture medium was removed and cells were pre-incubated in Krebs–Ringer bicarbonate buffer (containing 0.5% (w/v) BSA, pH 7.4) supplemented with 1.1 mmol/l glucose for 40 min at 37 °C. Following the pre-incubation, experiments (n=8) were performed in presence of glucose (5.6 or 16.7 mmol/l) with a […]
incubations, aliquots of assay buffer were collected from each well and stored at -20 °C prior to […]
Acute in vivo effects in lean mice For food intake studies, fasted (18 h) mice were given intraperitoneal (i.p) injections of peptides at a dose of 25, 100 or 250 nmol/kg bw. Mice were then allowed free access to normal chow for 180 mins and cumulative food intake measured. […]

purified porcine DPP-4, sequence (P22411 whole entry): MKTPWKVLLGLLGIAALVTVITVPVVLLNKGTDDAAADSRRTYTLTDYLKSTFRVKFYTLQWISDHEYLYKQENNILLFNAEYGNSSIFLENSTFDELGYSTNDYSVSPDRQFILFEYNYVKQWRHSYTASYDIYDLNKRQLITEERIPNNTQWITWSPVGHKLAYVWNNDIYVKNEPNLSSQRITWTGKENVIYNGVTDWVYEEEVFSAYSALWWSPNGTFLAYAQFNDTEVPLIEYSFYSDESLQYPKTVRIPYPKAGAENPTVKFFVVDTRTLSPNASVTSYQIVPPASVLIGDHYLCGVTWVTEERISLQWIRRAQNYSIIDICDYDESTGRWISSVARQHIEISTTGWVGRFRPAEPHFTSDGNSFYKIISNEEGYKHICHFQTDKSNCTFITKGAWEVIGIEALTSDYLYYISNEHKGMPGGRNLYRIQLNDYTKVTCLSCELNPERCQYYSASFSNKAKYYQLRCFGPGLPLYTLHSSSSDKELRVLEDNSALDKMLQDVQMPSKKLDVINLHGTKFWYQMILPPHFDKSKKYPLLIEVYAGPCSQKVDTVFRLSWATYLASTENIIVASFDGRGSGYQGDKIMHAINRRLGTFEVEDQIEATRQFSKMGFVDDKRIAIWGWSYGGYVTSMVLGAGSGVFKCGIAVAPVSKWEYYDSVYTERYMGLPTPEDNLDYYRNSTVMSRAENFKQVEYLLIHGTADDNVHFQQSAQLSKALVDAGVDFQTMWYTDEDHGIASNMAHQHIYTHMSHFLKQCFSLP

CC[C@H](C)[C@H](NC(=O)[C@H](CO)NC(=O)[C@H](Cc1ccc(O)cc1)NC(=O)[C@H](CC(=O)O)NC(=O)[C@H](CO)NC(=O)[C@@H](NC(=O)[C@H](Cc1ccccc1)NC(=O)[C@@H](NC(=O)CNC(=O)[C@H](CCC(=O)O)NC(=O)[C@@H](C)NC(=O)[C@@H](N)Cc1ccc(O)cc1)[C@@H](C)O)[C@@H](C)CC)C(=O)N[C@@H](C)C(=O)N[C@@H](CCSC)C(=O)N[C@@H](Cc1c[nH]cn1)C(=O)N1CCC[C@H]1C(=O)N[C@@H](CCC(N)=O)C(=O)N[C@@H](CCC(N)=O)C(=O)N1CCC[C@H]1C(=O)N[C@@H](Cc1c[nH]c2ccccc12)C(=O)N[C@H](C(=O)N[C@@H](CC(C)C)C(=O)O)[C@@H](C)CC [(DAla^2)GIP/xenin-8-Gln] (H-Y[dA]EGTFISDYSIAMHPQQPWIL-OH)
Stability when incubated in the presence of DPP-4 (purified porcine DPP-4): remained fully intact

CC[C@H](C)[C@H](NC(=O)[C@H](Cc1c[nH]c2ccccc12)NC(=O)[C@@H]1CCCN1C(=O)[C@H](CCC(N)=O)NC(=O)[C@H](CCC(N)=O)NC(=O)[C@@H]1CCCN1C(=O)[C@@H](N)Cc1c[nH]cn1)C(=O)N[C@@H](CC(C)C)C(=O)O [xenin-8-Gln] (H-HPQQPWIL-OH)
Cumulative food intake (lean control mice [1]): significant (p < 0.05) reductions in food intake
Effect on intracellular Ca^2+ concentrations (BRIN-BD11 cells [2]): Neither, (DAla^2)GIP, xenin-8-Gln nor (DAla^2)GIP/xenin-8-Gln had any effect
Blood glucose (lean control mice [3]; 30 min post injection): significantly (p < 0.05) lowered blood glucose values
Overall AUC blood glucose (lean control mice [3]): significantly (p < 0.05) decreased overall AUC blood glucose values
Overall AUC for blood glucose after glucose challenge (lean control mice [4]): devoid of glucose-lowering or insulin-releasing effects
Plasma insulin AUC after glucose challenge (lean control mice [4]): devoid of glucose-lowering or insulin-releasing effects
Peptide-mediated insulin secretion in presence of neurotensin receptor antagonist SR142948A (BRIN-BD11 cells [5]): similar, but less prominent, effect

Reference: paper PMC6518372, “An enzymatically stable GIP/xenin hybrid peptide restores GIP sensitivity, enhances beta cell function and improves glucose homeostasis in high-fat-fed mice” (Diabetologia, 2016)
